Reference: PMC3368886, “ATPase Cycle and DNA Unwinding Kinetics of RecG Helicase” (PLoS ONE, 2012)

Target: T1, RecG (Thermotoga maritima, UniProt Q9WY48)
T1 construct: made in house
T1 sequence (Q9WY48 1-780): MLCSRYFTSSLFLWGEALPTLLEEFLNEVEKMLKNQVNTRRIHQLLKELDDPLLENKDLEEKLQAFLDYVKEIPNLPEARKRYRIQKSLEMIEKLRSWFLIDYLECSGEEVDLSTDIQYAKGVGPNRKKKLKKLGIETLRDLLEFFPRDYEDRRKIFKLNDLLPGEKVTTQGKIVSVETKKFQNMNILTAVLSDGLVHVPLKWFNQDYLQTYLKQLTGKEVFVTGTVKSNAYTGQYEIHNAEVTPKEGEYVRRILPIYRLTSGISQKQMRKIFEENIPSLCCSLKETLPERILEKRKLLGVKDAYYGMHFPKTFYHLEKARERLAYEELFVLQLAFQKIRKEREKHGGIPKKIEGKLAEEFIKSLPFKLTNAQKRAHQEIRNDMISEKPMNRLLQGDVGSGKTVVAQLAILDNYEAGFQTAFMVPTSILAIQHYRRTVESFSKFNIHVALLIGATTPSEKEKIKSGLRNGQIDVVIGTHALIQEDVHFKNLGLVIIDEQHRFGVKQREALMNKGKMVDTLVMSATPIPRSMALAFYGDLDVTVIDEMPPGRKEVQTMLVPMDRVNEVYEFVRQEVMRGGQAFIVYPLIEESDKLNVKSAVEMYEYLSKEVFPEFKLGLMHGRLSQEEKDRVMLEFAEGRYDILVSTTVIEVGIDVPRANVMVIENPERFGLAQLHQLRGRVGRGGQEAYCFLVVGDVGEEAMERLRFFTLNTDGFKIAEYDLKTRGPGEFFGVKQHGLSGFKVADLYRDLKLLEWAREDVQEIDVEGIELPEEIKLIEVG
Experiment: ATP hydrolysis during unwinding (phosphate biosensor, heparin trap)
Format: biochemical
Details: 200 nM 4-strand complementary junction, 10 nM RecG, 200 µM ATP
Description: The rate of ATP hydrolysis and total ATP usage during unwinding were measured using the phosphate biosensor (Figure 8), following rapid mixing of ATP with the RecG⋅DNA complex. […] Heparin is a potent inhibitor of many helicases, mimicking the DNA substrate and binding tightly to the enzyme, once the latter dissociates from the DNA, and so prevents rebinding of the helicase to fresh DNA substrates. The initial, rapid phase, which represents unwinding of the first DNA junction, was unaffected by the presence of heparin. […] RecG will continue to hydrolyze ATP while bound to the DNA substrate.
Figure 8 ATP hydrolysis during unwinding 4-strand complementary junctions. Junctions of varying arm lengths (shown in b.p.) were used to measure the rate of ATP hydrolysis during unwinding. RecG was pre-incubated with junction and the reactions were initiated by rapid mixing with ATP and heparin. […]
The ATPase measurement was repeated with different lengths of lagging and leading strands, as used in the unwinding measurements, in the presence of heparin (Figure 8 main panel). […] The ATPase rate measured here is similar to the steady-state and hydrolysis rate constants measured in the above sections, supporting the idea that the ATP hydrolysis reaction is not greatly affected by the type of junction.

## Nc1ncnc2c1ncn2[C@@H]1O[C@H](COP(=O)(O)OP(=O)(O)OP(=O)(O)O)[C@@H](O)[C@H]1O [ATP]
  rate of ATP hydrolysis during unwinding phase: 5.8 s⁻¹
